Columns and labels:
[1] = biological target: histamine H3 receptor (Homo sapiens, UniProt Q9Y5N1); assay: FLPPR assay, antagonistic activity on histamine H3 receptor; type: cell-based
Experimental: The FLPPR assay (NIH Assay Guidance Manual: HTS Assay Validation-Section 4.3. Analysis (Potency), htpps://www.ncbi.nlm.nih.gov/books/NBK83783) was performed using SUVN-G3031 as a positive control, and 21 target compounds were tested for the antagonistic activity target to histamine H3 receptor.

[2] = biological target: hERG channel (Homo sapiens, UniProt Q12809); assay: in vitro; conditions: Average inhibition rate (%) on hERG channel
Description: In cardiomyocytes, inhibition of the delayed rectifier potassium current (IKr) channel protein encoded by the human Ether-a-go-go Related Gene (hERG) is the most important mechanism by which drugs lead to prolongation of the QT interval. hERG is characterized by a specific molecular structure, which allows it to be inhibited by different structures, leading to severe arrhythmias. Statistically, 25-40% of lead compounds show varying degrees of hERG-related toxicity. Therefore, early evaluation of the effects of compounds on hERG is crucial in the drug development process.
The inhibition rate of compounds on hERG channels was examined by manual membrane clamp technique on HEK293 cell line which is stably expressing hERG ion channels.

[3] = tested on: CCI model rats; assay: Analgesic effect, chronic constriction injury (CCI) model, mechanical withdrawal threshold; type: in vivo, SD rats
Description: Exposing the sciatic nerve on male SD rats' (180-200 g) right hind leg, in the anterior segment where the sciatic nerve is about to bifurcate, use sterile chromic gut thread (No. 4, 0.15 mm in diameter) to ligate 4 loops loosely, with each loop 1-2 mm apart, and suture the muscle and skin to establish the chronic constriction injury (CCI) model. In the sham-operated group, only the sciatic nerve was exposed without ligation, and the muscle and skin were sutured. The mechanical withdrawal threshold was detected by electronic analgesia meter (IITC-2391) on the 7th day for 2 consecutive days.
The CCI model rats with stabilized mechanical withdrawal thresholds were randomly divided into five groups, named model group (model), pregabalin group (Pre, 30 mg/kg), BIOS-B-12 compound group (3 mg/kg), BIOS-B-12 compound group (1 mg/kg), and BIOS-B-12 compound group (0.3 mg/kg), and were administered at 1 mL/100 g by gavage, and the same column of saline was gavaged in Sham an model group. The basic value was determined before drug administration, and the mechanical withdrawal thresholds were detected at 0.5 h, 1 h, 2 h, 4 h, 6 h, and 24 h after a single drug administration, and the p value was calculated by ANOVA with T-test.
The CCI model rats with stabilized mechanical withdrawal thresholds were randomly divided into three groups, named model group (model), pregabalin group (Pre, 30 mg/kg), and BIOS-B-14 compound group (1 mg/kg), and were administered at 1 mL/100 g by gavage, and the same column of saline was gavaged in Sham and model group. The basic value was determined before drug administration, and the mechanical withdrawal thresholds were detected at 0.5 h, 1 h, 2 h, 4 h, and 6 h after a single drug administration, and the p value was calculated by ANOVA with T-test.

[4] = tested on: histamine-induced scratching; assay: Antipruritic ability, histamine-induced scratching in mice; type: in vivo, C57BL/6J mice
Experimental: The C57BL/6J male mice, with 6-8 weeks old, were randomly divided into model group (Model), BIOS-B-12 compound group (10 mg/kg), BIOS-B-18 compound group (10 mg/kg) and dexamethasone group (Dex, 3 mg/kg), with 7 animals in each group. The mice were injected subcutaneously with 500 μg/50 μL histamine at the back of the neck after the administration of dexamethasone for 1 h, BIOS-B-12 for 4 h, and BIOS-B-18 for 1 h, respectively, and immediately observed for 30 min. The number of scratched was recorded and the inhibition rate was calculated as (Model-Compound)/Model×100%.

[5] = BIOS-B-12 3, 1, 0.3 mg/kg vs pregabalin 30 mg/kg, FIG. 1 study

Sequence of histamine H3 receptor (Q9Y5N1 whole entry, species assumed): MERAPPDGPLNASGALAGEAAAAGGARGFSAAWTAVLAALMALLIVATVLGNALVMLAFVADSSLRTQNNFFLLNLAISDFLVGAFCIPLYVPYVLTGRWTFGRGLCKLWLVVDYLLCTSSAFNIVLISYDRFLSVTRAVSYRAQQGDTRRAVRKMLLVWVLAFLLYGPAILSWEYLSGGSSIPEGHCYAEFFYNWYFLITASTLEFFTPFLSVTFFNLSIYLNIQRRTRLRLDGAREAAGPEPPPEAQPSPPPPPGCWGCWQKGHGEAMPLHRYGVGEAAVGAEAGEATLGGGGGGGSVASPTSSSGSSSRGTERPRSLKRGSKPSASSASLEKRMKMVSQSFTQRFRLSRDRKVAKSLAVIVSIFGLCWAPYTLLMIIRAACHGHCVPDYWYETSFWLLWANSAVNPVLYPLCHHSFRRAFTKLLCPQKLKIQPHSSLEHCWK
Sequence of hERG channel (Q12809 whole entry): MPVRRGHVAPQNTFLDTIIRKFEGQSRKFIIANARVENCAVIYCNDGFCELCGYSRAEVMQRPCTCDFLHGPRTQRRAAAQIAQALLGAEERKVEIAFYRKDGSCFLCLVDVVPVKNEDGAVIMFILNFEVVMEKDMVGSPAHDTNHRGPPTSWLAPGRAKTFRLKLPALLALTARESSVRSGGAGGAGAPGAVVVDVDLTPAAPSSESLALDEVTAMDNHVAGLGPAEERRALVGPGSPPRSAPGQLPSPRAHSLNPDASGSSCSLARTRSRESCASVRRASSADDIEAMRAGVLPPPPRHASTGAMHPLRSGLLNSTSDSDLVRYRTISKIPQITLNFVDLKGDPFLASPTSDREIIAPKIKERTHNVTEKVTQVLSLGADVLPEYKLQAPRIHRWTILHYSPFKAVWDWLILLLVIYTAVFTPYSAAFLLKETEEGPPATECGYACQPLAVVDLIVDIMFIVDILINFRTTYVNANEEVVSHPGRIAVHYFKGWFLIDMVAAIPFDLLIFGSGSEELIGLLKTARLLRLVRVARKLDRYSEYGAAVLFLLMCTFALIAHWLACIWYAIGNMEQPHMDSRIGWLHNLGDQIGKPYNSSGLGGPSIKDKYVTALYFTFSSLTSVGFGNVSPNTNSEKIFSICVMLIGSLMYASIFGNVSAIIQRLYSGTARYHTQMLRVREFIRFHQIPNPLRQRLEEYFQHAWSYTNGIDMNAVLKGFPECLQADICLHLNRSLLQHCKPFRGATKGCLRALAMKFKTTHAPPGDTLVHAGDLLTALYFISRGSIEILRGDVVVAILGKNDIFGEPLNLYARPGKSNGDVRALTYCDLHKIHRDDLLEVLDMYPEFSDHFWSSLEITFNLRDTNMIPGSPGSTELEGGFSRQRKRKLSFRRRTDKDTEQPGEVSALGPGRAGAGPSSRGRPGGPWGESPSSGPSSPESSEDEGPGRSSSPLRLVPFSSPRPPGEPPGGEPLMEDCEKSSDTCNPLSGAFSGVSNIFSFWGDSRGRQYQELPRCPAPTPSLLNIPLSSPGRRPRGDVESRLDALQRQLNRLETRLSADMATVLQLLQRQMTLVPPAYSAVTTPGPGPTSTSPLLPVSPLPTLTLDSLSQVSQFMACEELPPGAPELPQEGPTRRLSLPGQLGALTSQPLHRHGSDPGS

O=C(CN1CCN(C2CCC2)CC1)Nc1ccc(OC2CC(N3CCCCC3)C2)cc1 (stereo not drawn) [BIOS-B-12, 2-(4-cyclobutylpiperazin-1-yl)-N-(4-(3-(piperidin-1-yl)cyclobutoxy)phenyl)acetamide]
inhibition at 0.005 µM ([1]; read-out: % Inh-AVERAGE @ 5 nM): 99.1%
inhibition at 0.05 µM ([1]; read-out: % Inh-AVERAGE @ 50 nM): 98.8%
inhibition at 10 µM [2]: 2.06%
mechanical withdrawal thresholds vs model group ([3]; 0.3 mg/kg single dose by gavage, 1 h to 2 h after administration, P<0.05, FIG. 1): significantly different
mechanical withdrawal thresholds vs model group ([3]; 1 mg/kg single dose by gavage, 0.5 h to 6 h after administration, P<0.01, FIG. 1): significantly different
mechanical withdrawal thresholds vs model group ([3]; 3 mg/kg single dose by gavage, 0.5 h to 24 h after administration, P<0.01, FIG. 1): significantly different
level of analgesia compared with pregabalin [3, 5]: superior to that of pregabalin
period of analgesia time compared with pregabalin [3, 5]: longer period of analgesia time
mechanical withdrawal thresholds in the CCI model rats, dose dependence ([3]; single dose at 3, 1 and 0.3 mg/kg, FIG. 1): dose-dependently increasing
number of histamine-induced scratched in mice ([4]; 10 mg/kg): reduced
antipruritic effect compared with positive control dexamethasone ([4]; 10 mg/kg vs dexamethasone 3 mg/kg): more effective than the positive control
Inhibition Rate (%) of number of scratches ([4]; BIOS-B-12 10 mg/kg 4 h, BIOS-B-18 10 mg/kg 1 h, Dex 3 mg/kg 1 h before histamine 500 μg/50 μL s.c., observed 30 min, (Model-Compound)/Model×100%): 36.6%

— US20250179040A1, “HISTAMINE H3 RECEPTOR ANTAGONISTS AND THEIR PHARMACEUTICAL USES” (HANGZHOU BIO-SINCERITY PHARMA-TECH CO., LTD., priority 2022, published 2025)
